In paper PMC3304006 (Journal of the American Chemical Society, 2012):

Molecular target: free peptide Cys-Lys-D-Ala-D-Ala
Assay: SPR binding to immobilized free peptide
Settings: read-out: KD values from the current work, Free peptide, equilibrium fit, 25 °C

| Kd [nM] | Compound |
| --- | --- |
| 855 ± 100 | CN[C@H]1C(=O)N[C@@H]2Cc3ccc(cc3)Oc3cc4cc(c3O[C@@H]3O[C@H](C(=O)O)[C@@H](O)[C@H](O)[C@H]3NC(=O)CCCCCCCCC(C)C)Oc3ccc(cc3Cl)[C@@H](O)[C@@H]3NC(=O)[C@H](NC(=O)[C@@H]4NC(=O)[C@@H](NC2=O)c2cc(cc(O)c2Cl)Oc2cc1ccc2O)c1ccc(O)c(c1)-c1c(O[C@H]2O[C@H](CO)[C@@H](O)[C@H](O)[C@@H]2O)cc(O)cc1[C@@H](C(=O)NCCCN(C)C)NC3=O [Dalbavancin] |
| 2420 ± 680 | Ristocetin |

| Compound | Kd [nM] |
| --- | --- |
| CN[C@H](CC(C)C)C(=O)N[C@H]1C(=O)N[C@@H](CC(N)=O)C(=O)N[C@H]2C(=O)N[C@H]3C(=O)N[C@H](C(=O)N[C@H](C(=O)O)c4cc(O)cc(O)c4-c4cc3ccc4O)[C@H](O)c3ccc(c(Cl)c3)Oc3cc2cc(c3O[C@@H]2O[C@H](CO)[C@@H](O)[C@H](O)[C@H]2O[C@H]2C[C@](C)(N)[C@H](O)[C@H](C)O2)Oc2ccc(cc2Cl)[C@H]1O [Vancomycin] | 4160 ± 520 |
